Source: patent US20070049593A1 (priority 2004, published 2007)
Where a name gives a salt, the structure may show the parent alone.

These compounds were tested against T1, HCV polymerase (Hepatitis C virus genotype 1b, UniProt P26663) (assay: biochemical). Settings: not given.
T1 construct: a region encoding NS5B (J Virol 1991 March, 65(3), 1105-13, 544 amino acids after deletion of 47 amino acids on the C-terminal); 6xHis (C); made in house; host or cells: Escherichia coli
Design: species or system HCV BK strain
Source text: The evaluation of the HCV polymerase inhibitory activity of the compound of the present invention is explained in the following. This polymerase is an enzyme coded for by the non-structural protein region called NS5B on the genome RNA of HCV (EMBO J., 15:12-22, 1996).
Using, as a template, a cDNA clone corresponding to the full length genome RNA of HCV BK strain obtained from the blood of a patient with hepatitis C, a region encoding NS5B (J Virol 1991 March, 65(3), 1105-13, 544 amino acids after deletion of 47 amino acids on the C-terminal) was amplified by PCR. The objective gene was prepared by adding a 6 His tag {base pair encoding 6 continuous histidine (His)}to the 3′ end thereof and transformed to Escherichia coli. The Escherichia coli capable of producing the objective protein was cultured. The obtained cells were suspended in a buffer solution and crushed in a microfluidizer.
Using a synthetic primer designed based on the sequence of HCV genomic 3′ untranslated region, a DNA fragment (148 bp) containing polyU and 3′X sequence was entirely synthesized and cloned into plasmid pBluescript SK II(+) (Stratagene). The cDNA encoding full length NS5B, which was prepared in i) above, was digested with restriction enzyme KpnI to give a cDNA fragment containing the nucleotide sequence of from the restriction enzyme cleavage site to the termination codon. This cDNA fragment was inserted into the upstream of 3′ untranslated region of the DNA in pBluescript SK II(+) and ligated. The about 450 bp inserted DNA sequence was used as a template in the preparation of substrate RNA.
RNA was synthesized (37° C., 3 hr) by run-off method using this purified DNA as a template, a promoter of pBluescript SK II(+), MEGAscript RNA synthesis kit (Ambion) and T7 RNA polymerase. DNase I was added and the mixture was incubated for 1 hr. The template DNA was removed by decomposition to give a crude RNA product.
A test substance (compound of the present invention) and a reaction mixture (30 μl) having the following composition were reacted at 25° C. for 90 min.
10% Trichloroacetic acid at 4° C. and 1% sodium pyrophosphate solution (150 μl) were added to this reaction mixture to stop the reaction. The reaction mixture was left standing in ice for 15 min to insolubilize RNA. This RNA was trapped on a glass filter (Whatman GF/C and the like) upon filtration by suction. This filter was washed with a solution containing 1% trichloroacetic acid and 0.1% sodium pyrophosphate, washed with 90% ethanol and dried. A liquid scintillation cocktail (Packard) was added and the radioactivity of RNA synthesized by the enzyme reaction was measured on a liquid scintillation counter.
The HCV polymerase inhibitory activity (IC50) of the compound of the present invention was calculated from the values of radioactivity of the enzyme reaction with and without the test substance.
Reaction mixture: HCV polymerase (0.5 μg/ml) obtained in i), substrate RNA (5 μg/ml) obtained in ii), ATP (50 μM), GTP (50 μM), CTP ([…]), UTP (2 μM), [5,6-^3H]UTP (46 Ci/mmol (Amersham), 1 μCi) 20 mM Tris-HCl (pH 7.5), EDTA (1 mM), MgCl2 (5 mM), NaCl (50 mM), DTT (1 mM), BSA (0.01%)

T1 sequence (P26663 2420-2963): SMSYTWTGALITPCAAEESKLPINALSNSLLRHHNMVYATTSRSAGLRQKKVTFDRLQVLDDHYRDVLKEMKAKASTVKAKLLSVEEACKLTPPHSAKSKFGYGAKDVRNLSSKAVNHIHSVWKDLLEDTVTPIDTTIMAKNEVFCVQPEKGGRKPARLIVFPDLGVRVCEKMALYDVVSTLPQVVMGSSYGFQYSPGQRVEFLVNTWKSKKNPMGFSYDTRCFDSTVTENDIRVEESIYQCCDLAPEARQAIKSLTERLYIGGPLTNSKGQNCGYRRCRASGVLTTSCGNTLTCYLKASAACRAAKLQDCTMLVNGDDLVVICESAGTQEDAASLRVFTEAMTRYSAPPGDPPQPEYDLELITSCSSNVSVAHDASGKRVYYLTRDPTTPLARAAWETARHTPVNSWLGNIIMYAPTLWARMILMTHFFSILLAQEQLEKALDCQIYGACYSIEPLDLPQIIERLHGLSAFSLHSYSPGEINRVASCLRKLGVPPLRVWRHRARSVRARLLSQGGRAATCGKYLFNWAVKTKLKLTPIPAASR

**Q.** Which IC50 does the source give for CCN1CCN(C(=O)CCCN2CCn3c(c(C4CCCCC4)c4ccc(C(=O)O)cc43)-c3ccccc32)CC1 [Example 1-62, 13-cyclohexyl-5-[4-(4-ethylpiperazin-1-yl)-4-oxobutyl]-6,7-dihydro-5H-benzo[5,6][1,4]diazepino[7,1-a]indole-10-carboxylic acid dihydrochloride] here?
**A.** < 0.1 µM

**Q.** How did the IC50 turn out when Cc1ccc2c(c1)N(CC(=O)N1CCOCC1)CCn1c-2c(C2CCCCC2)c2ccc(C(=O)O)cc21 [Example 1-63, 13-cyclohexyl-3-methyl-5-[2-(morpholin-4-yl)-2-oxoethyl]-6,7-dihydro-5H-benzo[5,6][1,4]diazepino[7,1-a]indole-10-carboxylic acid monohydrochloride] was run?
**A.** < 0.1 µM

**Q.** For COc1ccc2c(c1)N(CC(=O)N1CCOCC1)CCn1c-2c(C2CCCCC2)c2ccc(C(=O)O)cc21 [Example 1-64, 13-cyclohexyl-3-methoxy-5-[2-(morpholin-4-yl)-2-oxoethyl]-6,7-dihydro-5H-benzo[5,6][1,4]diazepino[7,1-a]indole-10-carboxylic acid monohydrochloride], which IC50 is on record?
**A.** < 0.1 µM

**Q.** How did the IC50 turn out when COc1ccc2c(c1)N(CC(=O)N1CCCCC1)CCn1c-2c(C2CCCCC2)c2ccc(C(=O)O)cc21 [Example 1-65, 13-cyclohexyl-3-methoxy-5-[2-oxo-2-(piperidin-1-yl)ethyl]-6,7-dihydro-5H-benzo[5,6][1,4]diazepino[7,1-a]indole-10-carboxylic acid monohydrochloride] was run?
**A.** < 0.1 µM

**Q.** CCN1CCN(C(=O)CN2CCn3c(c(C4CCCCC4)c4ccc(C(=O)O)cc43)-c3ccc(OC)cc32)CC1 [Example 1-66, 13-cyclohexyl-5-[2-(4-ethylpiperazin-1-yl)-2-oxoethyl]-3-methoxy-6,7-dihydro-5H-benzo[5,6][1,4]diazepino[7,1-a]indole-10-carboxylic acid dihydrochloride] was tested. Which IC50 did it give?
**A.** < 0.1 µM

**Q.** With COc1ccc2c(c1)N(CCN1CCOCC1)CCn1c-2c(C2CCCCC2)c2ccc(C(=O)O)cc21 [Example 1-67, 13-cyclohexyl-3-methoxy-5-[2-(morpholin-4-yl)ethyl]-6,7-dihydro-5H-benzo[5,6][1,4]diazepino[7,1-a]indole-10-carboxylic acid dihydrochloride] as the compound, how does the IC50 read?
**A.** < 0.1 µM

**Q.** Cc1ccc2c(c1)N(CCN1CCOCC1)CCn1c-2c(C2CCCCC2)c2ccc(C(=O)O)cc21 [Example 1-68, 13-cyclohexyl-3-methyl-5-[2-(morpholin-4-yl)ethyl]-6,7-dihydro-5H-benzo[5,6][1,4]diazepino[7,1-a]indole-10-carboxylic acid dihydrochloride] was tested. Which IC50 did it give?
**A.** < 0.1 µM

**Q.** O=C(O)c1ccc2c(C3CCCCC3)c3n(c2c1)CCN(CCN1CCCOCC1)c1ccccc1-3 [Example 1-69, 13-cyclohexyl-5-[2-(1,4-oxazepan-4-yl)ethyl]-6,7-dihydro-5H-benzo[5,6][1,4]diazepino[7,1-a]indole-10-carboxylic acid dihydrochloride] was tested. Which IC50 did it give?
**A.** < 0.1 µM

**Q.** CS(=O)(=O)N1CCN(C(=O)CN2CCn3c(c(C4CCCCC4)c4ccc(C(=O)O)cc43)-c3ccccc32)CC1 [Example 1-70, 13-cyclohexyl-5-[2-(4-methanesulfonylpiperazin-1-yl)-2-oxoethyl]-6,7-dihydro-5H-benzo[5,6][1,4]diazepino[7,1-a]indole-10-carboxylic acid monohydrochloride] was tested. Which IC50 did it give?
**A.** < 0.1 µM

**Q.** Which IC50 does the source give for CCC1CCN(C(=O)CN2CCn3c(c(C4CCCCC4)c4ccc(C(=O)O)cc43)-c3ccccc32)CC1 [Example 1-71, 13-cyclohexyl-5-[2-(4-ethylpiperidin-1-yl)-2-oxoethyl]-6,7-dihydro-5H-benzo[5,6][1,4]diazepino[7,1-a]indole-10-carboxylic acid monohydrochloride] here?
**A.** < 0.1 µM

**Q.** With CC1CCN(C(=O)CN2CCn3c(c(C4CCCCC4)c4ccc(C(=O)O)cc43)-c3ccccc32)CC1 [Example 1-72, 13-cyclohexyl-5-[2-(4-methylpiperidin-1-yl)-2-oxoethyl]-6,7-dihydro-5H-benzo[5,6][1,4]diazepino[7,1-a]indole-10-carboxylic acid monohydrochloride] as the compound, how does the IC50 read?
**A.** < 0.1 µM

**Q.** For CCC1CCN(CCN2CCn3c(c(C4CCCCC4)c4ccc(C(=O)O)cc43)-c3ccccc32)CC1 [Example 1-73, 13-cyclohexyl-5-[2-(4-ethylpiperidin-1-yl)ethyl]-6,7-dihydro-5H-benzo[5,6][1,4]diazepino[7,1-a]indole-10-carboxylic acid dihydrochloride], which IC50 is on record?
**A.** < 0.1 µM

**Q.** For COc1ccc2c(c1)N(CCN1CCCCC1)CCn1c-2c(C2CCCCC2)c2ccc(C(=O)O)cc21 [Example 1-74, 13-cyclohexyl-3-methoxy-5-[2-(piperidin-1-yl)ethyl]-6,7-dihydro-5H-benzo[5,6][1,4]diazepino[7,1-a]indole-10-carboxylic acid dihydrochloride], which IC50 is on record?
**A.** < 0.1 µM

**Q.** How did the IC50 turn out when CC1CCN(CCN2CCn3c(c(C4CCCCC4)c4ccc(C(=O)O)cc43)-c3ccccc32)CC1 [Example 1-75, 13-cyclohexyl-5-[2-(4-methylpiperidin-1-yl)ethyl]-6,7-dihydro-5H-benzo[5,6][1,4]diazepino[7,1-a]indole-10-carboxylic acid dihydrochloride] was run?
**A.** < 0.1 µM

**Q.** Which IC50 does the source give for CCN1CCN(C(=O)CN2CCn3c(c(C4CCCCC4)c4ccc(C(=O)O)cc43)-c3ccc(Cl)cc32)CC1 [Example 1-76, 3-chloro-13-cyclohexyl-5-[2-(4-ethylpiperazin-1-yl)-2-oxoethyl]-6,7-dihydro-5H-benzo[5,6][1,4]diazepino[7,1-a]indole-10-carboxylic acid dihydrochloride] here?
**A.** < 0.1 µM

**Q.** How did the IC50 turn out when O=C(O)c1ccc2c(C3CCCCC3)c3n(c2c1)CCN(CC(=O)N1CCCCC1)c1cc(Cl)ccc1-3 [Example 1-77, 3-chloro-13-cyclohexyl-5-[2-oxo-2-(piperidin-1-yl)ethyl]-6,7-dihydro-5H-benzo[5,6][1,4]diazepino[7,1-a]indole-10-carboxylic acid monohydrochloride] was run?
**A.** < 0.1 µM

**Q.** O=C(O)c1ccc2c(C3CCCCC3)c3n(c2c1)CCN(CC(=O)N1CCCCCC1)c1ccccc1-3 [Example 1-78, 5-[2-(azepan-1-yl)-2-oxoethyl]-13-cyclohexyl-6,7-dihydro-5H-benzo[5,6][1,4]diazepino[7,1-a]indole-10-carboxylic acid monohydrochloride] was tested. Which IC50 did it give?
**A.** < 0.1 µM

**Q.** O=C(O)c1ccc2c(C3CCCCC3)c3n(c2c1)CCN(CCCCN1CCOCC1)c1ccccc1-3 [Example 1-80, 13-cyclohexyl-5-[4-(morpholin-4-yl)butyl]-6,7-dihydro-5H-benzo[5,6][1,4]diazepino[7,1-a]indole-10-carboxylic acid dihydrochloride] was tested. Which IC50 did it give?
**A.** < 0.1 µM

**Q.** With O=C(O)c1ccc2c(C3CCCCC3)c3n(c2c1)CCN(CC(=O)N1CCN(c2ccccc2)CC1)c1ccccc1-3 [Example 1-81, 13-cyclohexyl-5-[2-oxo-2-(4-phenylpiperazin-1-yl)ethyl]-6,7-dihydro-5H-benzo[5,6][1,4]diazepino[7,1-a]indole-10-carboxylic acid dihydrochloride] as the compound, how does the IC50 read?
**A.** < 0.1 µM

**Q.** O=C(O)c1ccc2c(C3CCCCC3)c3n(c2c1)CCN(CCN1CCN(c2ccccc2)CC1)c1ccccc1-3 [Example 1-82, 13-cyclohexyl-5-[2-(4-phenylpiperazin-1-yl)ethyl]-6,7-dihydro-5H-benzo[5,6][1,4]diazepino[7,1-a]indole-10-carboxylic acid trihydrochloride] was tested. Which IC50 did it give?
**A.** < 0.1 µM

Same assay, conditions: 25° C., 90 min; [5,6-3H]UTP incorporation into RNA; read-out: HCV polymerase inhibitory activity IC50

**Q.** For O=C(O)c1ccc2c(C3CCCCC3)c3n(c2c1)CCN(CCN1CCOCC1)c1cc(Cl)ccc1-3 [Example 1-79, 3-chloro-13-cyclohexyl-5-[2-(morpholin-4-yl)ethyl]-6,7-dihydro-5H-benzo[5,6][1,4]diazepino[7,1-a]indole-10-carboxylic acid dihydrochloride], which IC50 is on record?
**A.** < 0.1 µM
